Experimental findings from PubChem BioAssay AID1996 are described below.

≈ marks a conversion by molar mass, not a printed value.

For orientation: solubility (kinetic) means the concentration staying in solution when a stock, usually in DMSO, is diluted into the medium.

For this data set the following is noted: buffer; pH 7.4; 200.0 µM.
Regarding `COc1ccccc1CC(=O)NCCN1CCCCC1`, the solubility (kinetic) is 39.3 µg/mL (≈ 142 µM).

Molecule `CC(=O)N1CCN(C(=O)c2oc3ccccc3c2C)CC1` returned a kinetic solubility of over 42.9 µg/mL.

In the case of `COc1cc2c(C#N)c(N3CCc4ccccc4C3)nc(N)c2c(N)n1`, the solubility (kinetic) was 1.6 µg/mL (≈ 4.62 µM).

In the case of `O=C(Cc1ccc(Br)cc1)NC1CCCc2ccccc21` (configuration not stated), the solubility (kinetic) was found to be 1.5 µg/mL (≈ 4.36 µM).

For `COc1cccc(C(=O)NCCNC(=O)c2ccc(C)nc2)c1`, the kinetic solubility was determined as 45.7 µg/mL (≈ 146 µM).

In turn, `NS(=O)(=O)c1cccc(NC(=O)CSc2nnc3n2CCCCC3)c1` had a kinetic solubility of over 57.2 µg/mL.

`COc1ccccc1OCCNC(=O)C(c1ccccc1)c1ccccc1`: the kinetic solubility was 2.2 µg/mL (≈ 6.09 µM).

As for `O=[N+]([O-])c1ccc(Cl)cc1N1CCCC1`, the kinetic solubility is 2.5 µg/mL (≈ 11 µM).

The molecule `Cc1ccccc1NC(=O)NCc1cccnc1` registered a solubility (kinetic) of over 36.2 µg/mL.

For `COc1ccc(-c2nc3ccc(C)cc3c(=O)o2)cc1OC`, the kinetic solubility was under 0.6 µg/mL.

In turn, `Cl.Clc1ccc(CNCCCSc2ncccn2)cc1` showed a kinetic solubility of over 49.5 µg/mL.

`O=C(NCCCN1CCCC1=O)Nc1cc(Cl)ccc1Cl` displayed a solubility (kinetic) of over 49.5 µg/mL.

As to `O=c1[nH]cccc1-c1nc2ccccc2[nH]1`, the kinetic solubility was over 31.7 µg/mL.

The molecule `O=C(O)C(=O)O.c1ccc(CCNC2CCCCCC2)cc1` showed a kinetic solubility of 45.3 µg/mL.

`CCCOc1ccc(CCCN=C(N)N)cc1Cl.O=S(=O)(O)O`: the solubility (kinetic) was determined as 42.2 µg/mL.

On to `O=C(COC(=O)c1ccc2ncsc2c1)NCc1ccccc1Cl`, for which the solubility (kinetic) is 10.4 µg/mL (≈ 28.8 µM).

As for `CC(CNS(=O)(=O)c1ccc(Br)cc1)CN(C)C` (configuration not stated), the kinetic solubility was over 50.3 µg/mL.

In turn, `Cc1cc(C(=O)OCC(=O)NC2CCC(C)CC2)c(C)o1` (configuration not stated) returned a kinetic solubility of 11.6 µg/mL (≈ 39.5 µM).

`O=c1onc(-c2ccc(Cl)cc2Cl)n1-c1cccnc1` displayed a solubility (kinetic) of 19.5 µg/mL (≈ 63.3 µM).

Turning to `CCN(CC)CCCN=C(N)N.O=S(=O)(O)O`, the kinetic solubility came to 24 µg/mL.

For the molecule `COc1ccc2cc(C3(C)NC(=O)N(CC(=O)N4CCCCC4)C3=O)ccc2c1` (configuration not stated), the solubility (kinetic) came to 14.6 µg/mL (≈ 36.9 µM).

Turning to `Cc1cccc(C(=O)OCC(=O)NCCCc2ccccc2)c1O`, the kinetic solubility was found to be 12.3 µg/mL (≈ 37.6 µM).

In turn, `CCN(CC)c1nc(N2CCOCC2)nc2ccccc12.Cl` returned a solubility (kinetic) of 42.8 µg/mL.

`O=C1NC2(CCCCC2)C(=O)N1Cc1cccc(C(F)(F)F)c1` returned a solubility (kinetic) of 8.4 µg/mL (≈ 25.7 µM).

`Cc1ccc(CC(=O)Nc2ncc([N+](=O)[O-])s2)cc1` gave a solubility (kinetic) of 6.5 µg/mL (≈ 23.4 µM).

`O=C(Cn1cnc2ccccc2c1=O)N1CCc2ccccc2C1` had a solubility (kinetic) of over 47.9 µg/mL.

`Cc1cc(C(=O)NCc2ccco2)sc1C` yielded a solubility (kinetic) of over 35.3 µg/mL.

In the case of `O=C(c1ccc(NC(=S)NCc2ccco2)cc1)N1CCOCC1`, the kinetic solubility came to 41.6 µg/mL (≈ 120 µM).

`CC(=O)Nc1ccc(NC(=O)C2C3CCC(C3)C2C(=O)O)cc1` (configuration not stated) registered a solubility (kinetic) of over 47.5 µg/mL.

Molecule `CN(CC(=O)Nc1cccc(F)c1)C(=O)CC1CC2CCC1C2` (configuration not stated) yielded a kinetic solubility of 4 µg/mL (≈ 12.6 µM).

Molecule `O=C(Oc1ccc(C(=S)N2CCOCC2)cc1)c1ccccc1F` showed a solubility (kinetic) of 36.6 µg/mL (≈ 106 µM).

Molecule `CC(=O)Nc1cccc(-c2csc(Nc3ccc(Cl)cn3)n2)c1` showed a solubility (kinetic) of 0.5 µg/mL (≈ 1.45 µM).

`OC(CN1CCCCC1)c1c[nH]c2ccccc12` (configuration not stated) had a solubility (kinetic) of over 36.7 µg/mL.

For `CSc1cccc(N2C(=O)C3CCCN3C2=S)c1` (configuration not stated), the solubility (kinetic) amounted to 36.2 µg/mL (≈ 130 µM).

As for `N#Cc1cc([N+](=O)[O-])ccc1NC(=O)COC(=O)C1CCC(=O)N1` (configuration not stated), the kinetic solubility is over 49.8 µg/mL.

In turn, `O=C1CN(C(=O)COc2c(F)c(F)cc(F)c2F)c2ccccc2N1` yielded a solubility (kinetic) of 44.4 µg/mL (≈ 125 µM).

In turn, `O=C(Cc1ccccc1F)N1CCN(CC(=O)N2CCCC2)CC1` had a solubility (kinetic) of over 50 µg/mL.

Molecule `CC1CCc2c(sc(NC(=O)c3cccn3C)c2C(N)=O)C1` (configuration not stated) yielded a kinetic solubility of 2.9 µg/mL (≈ 9.14 µM).

`Cc1csc(NC(=O)c2cc[n+]([O-])cc2)n1` came in with a kinetic solubility of over 35.3 µg/mL.

The molecule `CC(=O)Nc1ccc(C(=O)NCCCOC(C)C)cc1` yielded a solubility (kinetic) of 39.6 µg/mL (≈ 142 µM).

With `COCCCNc1nc(N)c([N+](=O)[O-])c(Nc2cc(OC)ccc2OC)n1`, the solubility (kinetic) was under 0.1 µg/mL.

`COc1ccc(NC(=S)N(C)CC2COc3ccccc3O2)cc1` (configuration not stated) returned a solubility (kinetic) of 2.6 µg/mL (≈ 7.55 µM).

For the molecule `CC1CCCC(NC(=O)COC(=O)COc2cccc(F)c2)C1C` (configuration not stated), the solubility (kinetic) amounted to 20.2 µg/mL (≈ 59.9 µM).

As to `CNc1nc(Cl)nc(Nc2ccccc2)n1`, the solubility (kinetic) is 2 µg/mL (≈ 8.49 µM).

`S=c1nc(NCCc2ccccc2Cl)c2ccccc2[nH]1` showed a kinetic solubility of 0.2 µg/mL (≈ 0.633 µM).

For the molecule `c1ccc(P(c2ccccn2)c2ccccn2)cc1`, the solubility (kinetic) was over 39.6 µg/mL.

`O=C(NC1CCCCC1)N1CCc2ccccc2C1` showed a kinetic solubility of over 38.8 µg/mL.

As for `CC(C)(C)c1cc(/C=C2\NC(=O)NC2=O)cc(C(C)(C)C)c1O`, the solubility (kinetic) was 6.6 µg/mL (≈ 20.9 µM).

The molecule `CCOc1ccccc1NS(=O)(=O)c1cn(C)c(=O)n(C)c1=O` gave a solubility (kinetic) of 34.4 µg/mL (≈ 101 µM).

On to `Cc1ccc(SC(C)C(=O)O/N=C(\N)c2ccncc2)cc1` (configuration not stated), for which the solubility (kinetic) is over 47.3 µg/mL.

As for `O=C1CCC2=C(CCCC2=O)N1`, the solubility (kinetic) came out at 24.2 µg/mL (≈ 146 µM).

`CC(=O)CC(c1ccccc1)S(=O)(=O)c1ccc([N+](=O)[O-])cc1` (configuration not stated) displayed a solubility (kinetic) of over 50 µg/mL.
